Where two headings read alike, the source gives them in different places.
Experiments:
SARS-CoV-2 [1] = assay: microbe, parasite or virus in culture; type: cell-based; details: for IC50 / IC50 (half-maximal inhibitory concentration), DYRA: DYRA, Calu-3 cells, SARS-CoV-2 lineage B.1, 48h; for IC50: read-out: IC50 (half-maximal inhibitory concentration), DYRA
in vitro = details: human
SARS-CoV-2 [2] = type: cell-based; details: for IC50 (half-maximal inhibitory concentration), SYRA: DYRA supernatants on VERO E6 cells, 24 h
Calu-3 cells = assay: Cytotoxicity, CellTiter-Glo 2.0 Luminescent Cell Viability Assay; details: read-out: CC50 (half-maximal cytotoxic concentration), 48h exposure
SARS-CoV-2 [3] = system: SARS-CoV-2; set-up: method as in PMID 32442105; details: Huh-7 cells; viral RNA in cell supernatant; cited from earlier work
Huh-7 cells = system: Huh-7 cells; set-up: method as in PMID 32442105; details: cited from earlier work

SMILES | CC50 (Calu-3 cells) [µM] | IC50 (half-maximal inhibitory concentration), DYRA (SARS-CoV-2 [1]) | IC50 (half-maximal inhibitory concentration), SYRA (SARS-CoV-2 [2]) | other results
CCC(CC)COC(=O)[C@H](C)N[P@](=O)(OC[C@H]1O[C@@](C#N)(c2ccc3c(N)ncnn23)[C@H](O)[C@@H]1O)Oc1ccccc1 [Remdesivir] |  |  |  | Selectivity Index (SARS-CoV-2 [1]; CC50/IC50 ratio, IC50 from DYRA): 485; IC50 (SARS-CoV-2 [1]; Severe acute respiratory syndrome coronavirus 2): 0.2 ± 0.05 µM; CC50 (in vitro): 97 µM
[Cl-].[Cl-].[Ti+4].c1cc[cH-]c1.c1cc[cH-]c1 [TiCp2Cl2, Titanocene dichloride] | > 200 |  |  | IC50 (SARS-CoV-2 [2]; read-out: IC50 (half-maximal inhibitory concentration), SYRA): 47.3 µM
CS(C)=O.[Cl-].[Cl-].[Cl-].[Cl-].[Ru+3].c1c[nH+]c[nH]1.c1c[nH]cn1 [NAMI-A] |  | Not active ^3 | Not active ^3 | 
CCOC(=O)CN(C)C1=[S+][Au-]([Br])([Br])[S]1 [AuL12] | 19 | Not active ^3 | Not active ^3 | 
CC(=O)OC[C@H]1O[C@@H]([S-])[C@H](OC(C)=O)[C@@H](OC(C)=O)[C@@H]1OC(C)=O.CCP(CC)CC.[Au+] [Auranofin] | 3.7 | Not active ^3 | Not active ^3 | IC50 (SARS-CoV-2 [3]): 1.4 µM; CC50 (Huh-7 cells): 5.7 µM
[Cl][Sb]([Cl])[Cl] [SbCl3, antimony trichloride] | 200 |  |  | IC50 (SARS-CoV-2 [1]): 31.1 ± 15.3 µM
CC[P](CC)(CC)[Au][I] [Au(Pet3)I] | 12 | Not active ^3 | Not active ^3 | 
Cl.[Cl-].[Cl-].[Cl-].[Ru+3].c1ccc2[nH]ncc2c1.c1ccc2[nH]ncc2c1.c1ccc2[nH]ncc2c1 [KP1019] | 60 |  |  | IC50 (SARS-CoV-2 [1]): 8.8 ± 1.5 µM
Cl.[Cl-].[Cl-].[Cl-].[Ru+3].c1c[nH]cn1.c1c[nH]cn1 [NAMI-A] | > 200 |  |  | 

Source: paper PMC8699537, “In Vitro Anti-SARS-CoV-2 Activity of Selected Metal Compounds and Potential Molecular Basis for Their Actions Based on Computational Study” (Biomolecules, 2021)
